Assay results as given in PMC5890937 (European journal of medicinal chemistry, 2017).
Where “and” joins values, the source holds several entries; their conditions need not be identical. Equal values may be shown once.

Tests used:
[1] = target: T1, HDAC6 (Homo sapiens, UniProt Q9UBN7); assay: ELISA-based HDAC activity assay, HDAC6; assay type: biochemical; details: for fold selectivity for HDAC6 and HDAC8 over HDAC1, 2, and 3 / HDAC6 selectivity over HDAC1, 2, and 3: from IC50 values; for isoform selectivity in single concentration screen (HDAC6 versus HDAC1, 2, 3): 1a-f at 0.75, 0.75, 2.5, 1.25, 2.5, and 5 μM, SAHA at 1 μM
T1 sequence (Q9UBN7 1-1215): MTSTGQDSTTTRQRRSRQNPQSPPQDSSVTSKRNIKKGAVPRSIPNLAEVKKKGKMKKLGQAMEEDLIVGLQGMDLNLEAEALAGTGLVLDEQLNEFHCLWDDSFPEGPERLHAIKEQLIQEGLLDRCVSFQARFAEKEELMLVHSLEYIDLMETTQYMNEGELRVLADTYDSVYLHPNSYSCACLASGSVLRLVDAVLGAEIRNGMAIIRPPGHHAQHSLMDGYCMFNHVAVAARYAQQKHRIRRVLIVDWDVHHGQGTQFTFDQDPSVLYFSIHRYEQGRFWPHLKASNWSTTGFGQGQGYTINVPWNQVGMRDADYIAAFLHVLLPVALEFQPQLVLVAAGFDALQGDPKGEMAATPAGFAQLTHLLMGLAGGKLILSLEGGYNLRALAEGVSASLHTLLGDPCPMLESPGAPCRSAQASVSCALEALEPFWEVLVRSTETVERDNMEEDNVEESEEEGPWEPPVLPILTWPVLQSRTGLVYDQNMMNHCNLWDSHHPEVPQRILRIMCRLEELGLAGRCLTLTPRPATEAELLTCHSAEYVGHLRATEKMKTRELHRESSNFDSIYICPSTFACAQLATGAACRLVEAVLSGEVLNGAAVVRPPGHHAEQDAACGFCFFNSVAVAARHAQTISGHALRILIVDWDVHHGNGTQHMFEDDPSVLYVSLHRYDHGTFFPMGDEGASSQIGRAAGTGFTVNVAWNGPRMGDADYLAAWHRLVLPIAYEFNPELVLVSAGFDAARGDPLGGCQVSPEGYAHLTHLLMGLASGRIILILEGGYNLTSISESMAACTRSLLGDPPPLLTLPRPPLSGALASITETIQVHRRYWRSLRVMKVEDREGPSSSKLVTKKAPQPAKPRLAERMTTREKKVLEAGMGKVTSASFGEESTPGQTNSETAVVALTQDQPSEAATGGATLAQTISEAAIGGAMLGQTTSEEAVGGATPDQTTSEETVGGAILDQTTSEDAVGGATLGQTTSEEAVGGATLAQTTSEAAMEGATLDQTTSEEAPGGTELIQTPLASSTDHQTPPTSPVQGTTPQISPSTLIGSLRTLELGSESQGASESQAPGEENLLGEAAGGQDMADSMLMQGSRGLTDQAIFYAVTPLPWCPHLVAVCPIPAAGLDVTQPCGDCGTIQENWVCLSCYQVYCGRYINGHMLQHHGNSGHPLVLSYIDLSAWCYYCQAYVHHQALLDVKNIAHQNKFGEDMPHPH

[2] = tested on: HDAC6; details: cited from earlier work
[3] = tested on: HDAC8; details: read-out: IC50 with HDAC8; cited from earlier work
[4] = tested on: HeLa cell lysates; assay: Global HDAC inhibition with HeLa cell lysates; assay type: biochemical, human; details: HeLa cell lysates IC50 relative to SAHA
[5] = tested on: acetyl-α-tubulin (AcTub); assay: In cellulo selectivity testing, western blot of acetyl-α-tubulin in U937 cells; assay type: cell-based, human; details: SAHA 5 μM, 1f 20-60 μM, 18 hours

## O=C(CC[C@@H](CCCC(=O)Nc1ccccc1)Cc1ccccc1)NO [(R)-1f, (R)-4-benzyl-N^1-hydroxy-N^8-phenyloctanediamide]
[1]
  fold selectivity for HDAC6 and HDAC8 over HDAC1, 2, and 3: 520- to 1300 fold

## O=C(CC[C@H](CCCC(=O)Nc1ccccc1)Cc1ccccc1)NO [(S)-1f, (S)-4-benzyl-N^1-hydroxy-N^8-phenyloctanediamide]
[1]
  fold selectivity for HDAC6 and HDAC8 over HDAC1, 2, and 3: 240- to 540 fold

## O=C(CCCC(CCC(=O)Nc1ccccc1)Cc1ccccc1)NO (centres unmarked) [C5-benzyl SAHA]
[2]
  HDAC6/8 selectivity: 8- to 21 fold
[2]; read-out: IC50 with HDAC6
  IC50: 270 nM
[3]
  IC50: 380 nM

## CC(CCCC(=O)Nc1ccccc1)CCC(=O)NO (centres unmarked) [Compound 1a, N^1-hydroxy-4-methyl-N^8-phenyloctanediamide]
[4]
  fold less potent compared to SAHA: 18 fold
[1]
  isoform selectivity in single concentration screen (HDAC6 versus HDAC1, 2, 3): smallest difference in potency

## CCCCCCC(CCCC(=O)Nc1ccccc1)CCC(=O)NO (centres unmarked) [Compound 1d, 4-hexyl-N^1-hydroxy-N^8-phenyloctanediamide]
[1]
  HDAC6 selectivity over HDAC1, 2, and 3: at least 210 fold
  fold selectivity for HDAC6 and HDAC8 over HDAC1, 2, and 3: 170- to 480 fold and 210- to 480 fold

## O=C(CCC(CCCC(=O)Nc1ccccc1)Cc1ccccc1)NO (centres unmarked) [Compound 1f, 4-benzyl-N^1-hydroxy-N^8-phenyloctanediamide]
[1]
  isoform selectivity in single concentration screen (HDAC6 versus HDAC1, 2, 3): greatest difference in potency
  HDAC6 selectivity over HDAC1, 2, and 3: at least 210 fold
  fold selectivity for HDAC6 and HDAC8 over HDAC1, 2, and 3: 210- to 740 fold
[5]
  levels of acetyl-α-tubulin (HDAC6 substrate): dose-dependent increase

## CCCC(CCC)C(=O)NO [Valpropylhydroxamic acid]
[2]
  selectivity for HDAC6 and 8 against HDAC1, 2, and 3: 9-17 fold
